The record followed here is US20090181942A1, “TRICYCLIC COMPOUNDS” (DAIICHI SANKYO COMPANY, LIMITED, priority 2005, published 2009).

The target of experiment [1] is T1, rat squalene synthetase (Rattus norvegicus, UniProt Q02769).
T1 construct: the final sediment thus obtained was used as a microsomal fraction for the measurement of enzymatic activity; from tissue; host or cells: liver of eight-week-old SD male rats, washed 105,000 x g microsomal fraction
T1 sequence (Q02769 1-416): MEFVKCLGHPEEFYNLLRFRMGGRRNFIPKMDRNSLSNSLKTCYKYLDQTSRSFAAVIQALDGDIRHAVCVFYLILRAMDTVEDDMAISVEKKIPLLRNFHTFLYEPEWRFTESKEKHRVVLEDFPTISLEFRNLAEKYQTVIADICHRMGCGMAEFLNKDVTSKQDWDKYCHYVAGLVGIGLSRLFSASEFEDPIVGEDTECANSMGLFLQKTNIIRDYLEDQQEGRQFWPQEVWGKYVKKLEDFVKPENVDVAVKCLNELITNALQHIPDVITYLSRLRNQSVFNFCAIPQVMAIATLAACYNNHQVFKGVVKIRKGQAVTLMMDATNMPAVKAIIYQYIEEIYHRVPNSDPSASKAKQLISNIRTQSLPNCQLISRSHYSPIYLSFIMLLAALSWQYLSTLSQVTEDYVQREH
Kind of experiment: Rat squalene synthetase inhibitory activity (rat liver microsomal fraction, [3H]farnesyl-pyrophosphate). Type of experiment: biochemical. The following applies: rat liver microsomal fraction 30 μg/mL, 5 μM [3H]farnesyl-pyrophosphate, 37° C., 20 minutes; read-out: IC50 (squalene synthetase inhibitory activity: concentration inhibiting 50% of radioactivity incorporated into squalene). The procedure:
1. Rat Squalene Synthetase Inhibitory Activity
(1) Preparation of Enzyme Source
As an enzyme source, a microsomal fraction prepared from a rat liver was employed. First, eight-week-old SD male rats were subjected to laparotomy under anesthesia with pentobarbital sodium. […] To the liver thus obtained were added 0.3M sucrose, 1 mM dithiothreitol (DTT), 1 mM sodium ethylenediamine tetraacetate (EDTA) and various protease inhibitors. The resulting mixture was homogenized in the presence of a 10 mM phosphate buffer adjusted to pH 7.4 and centrifuged for 5 minutes at 2,000×g and for 15 minutes at 10,000×g. As the protease inhibitor, phenylmethanesulfonyl fluoride (PMSF), leupeptin and aprotinin were added to give the final concentrations of 1 mM, 10 μM, and 5 μg/mL, respectively. The supernatant after centrifugation was centrifuged further at 105,000×g for 60 minutes. The sediment thus obtained was suspended in a 10 mM phosphate buffer (pH 7.4) containing 1 mM DTT, 1 mM EDTA, and the above-described protease inhibitors and the resulting suspension was centrifuged at 105,000×g for 30 minutes, which operation was performed twice. After washing, the final sediment thus obtained was used as a microsomal fraction for the measurement of enzymatic activity.
(2) Measurement of Squalene Synthetase Inhibitory Activity
Squalene synthetase activity was measured in accordance with the method of Schechter, et al., described in Journal of Biological Chemistry, 267, 8628-8635 (1992). Described specifically, the compound of the present invention dissolved in water or dimethylsulfoxide (DMSO) was added to an enzyme reaction mixture (total amount: 50 μl) containing 5 mM reduced nicotinamide adenine dinucleotide phosphate (NADPH), 5 mM 3-[(3-cholamidopropyl)dimethylammonio]propanesulfonic acid (CHAPS), 10 mM potassium fluoride, 10 mM magnesium chloride, 10 mM DTT, 1 μM/mL NB-598 (squalene epoxydase inhibitor, Journal of Biological Chemistry, 265, 18075-180788 (1990)), 50 mM HEPES buffer (pH 7.4)), 30 μg/mL of the rat liver microsomal fraction, and 5 μM [^3H] farnesyl-pyrophosphate and the resulting mixture was reacted at 37° C. for 20 minutes (enzyme reaction was started by adding [^3H]farnesyl-pyrophosphate to the enzyme reaction mixture which had been incubated in advance at 37° C. for 10 minutes). To the enzyme reaction mixture was added 5 μl of 1M EDTA (pH 9.2) to terminate the enzyme reaction, followed by the addition of 5 μl of a 0.5% squalene ethanol solution. After spotting of a 40 μl portion of the resulting mixture on a plastic sheet for thin layer chromatography, development with 5% toluene-95% hexane and drying, these pots were visualized by exposure to iodine vapor and the band of squalene was identified. The spots were cut out with scissors and put in a vial container. To the container was added 10 mL of Aquasol-2 (product of New England Nuclear Research Products, USA) and radioactivity was measured by a liquid scintillation counter. The squalene synthetase inhibitory activity was expressed as a concentration (IC50) of the compound inhibiting 50% of radioactivity incorporated into squalene.

In experiment [2] the test system is liver-cholesterol synthesis. Briefly: Rat single-dose liver-cholesterol synthesis inhibitory effect. It is filed as in vivo. The following applies: Wistar male rats, 3 mg/kg orally, 14C-mevalonic acid i.p. one hour later, liver taken one hour after that, relative to control group. The procedure:
2. Rat Single-Dose Liver-Cholesterol Synthesis Inhibitory Effect
A rat single-dose liver-cholesterol synthesis inhibitory effect was measured as described below.
To each the compounds of the present invention was added a necessary amount of a 0.5% methyl cellulose solution immediately before use. Then, an equivalent molar amount of sodium hydroxide or sodium hydrogen carbonate was added to dissolve or suspend it in the resulting solution. To 6-week-old Wistar male rats were orally administered each of the compounds of the present invention (3 mg/kg), while only a 0.5% methyl cellulose solution was administered to a control group. One hour later, physiological saline of mevalonic acid (5 μCi/5 mL/kg) labeled with a radioisotope ^14C was intraperitoneally administered. The rats were sacrificed one hour later. To 1 g of the liver thus obtained from the rats was added 5 mL of a 15% KOH ethanol solution and the resulting mixture was left to stand for 15 hours. After heating at 75° C. for 2 hours, the reaction mixture was extracted with 5 mL of water and 10 mL of petroleum ether. The petroleum ether layer was collected, evaporated to dryness and then dissolved in 50 μl of a chloroform:acetone=2:1 solution. The cholesterol band was separated by silica gel thin layer chromatography (Art.5748, toluene:ethyl acetate=3:1) and cut out. It was put in a vial container, followed by the addition of 10 mL of Aquasol-2 (product of Packard BioScience Company). The radioactivity was measured using a liquid scintillation counter. A ratio of the radioactivity relative to that of a control group was determined and liver-cholesterol synthesis inhibitory activity (%) was calculated.

Molecules are shown by their SMILES.

For `COc1cccc([C@H]2O[C@H](Cc3ncc(CCC(=O)O)s3)c3nnc(C(F)(F)F)n3-c3ccc(Cl)cc32)c1OC` (relative stereo) [Example 322, 3-({2-[(trans)-8-Chloro-6-(2,3-dimethoxyphenyl)-1-(trifluoromethyl)-4H,6H-[1,2,4]triazolo[4,3-a][4,1]benzoxazepin-4-yl]methyl}-1,3-thiazol-5-yl)propanoic Acid], the IC50 in experiment [1] amounted to 4.6 nM. For the same compound, the “Liver-cholesterol synthesis inhibitory effect” value in experiment [2] came to 76%.
The matching figures for `COC(=O)CCc1cnc(C[C@H]2S[C@H](c3cccc(OC)c3OC)c3cc(Cl)ccc3-n3c2nnc3C(F)(F)F)s1` (relative stereo) [Example 330, Methyl 3-({2-[(trans)-8-chloro-6-(2,3-dimethoxyphenyl)-1-(trifluoromethyl)-4H,6H-[1,2,4]triazolo[4,3-a][4,1]benzothiazepin-4-yl]methyl}-1,3-thiazol-5-yl)propanoate]: 4.9 nM and 75%.
With `COc1cccc(C2SC(CC(=O)N3CCC(CC(=O)O)CC3)c3nnc(C(F)(F)F)n3-c3ccc(Cl)cc32)c1OC` (single isomer, unassigned) [Example 343, 2-(1-{2-[8-Chloro-6-(2,3-dimethoxyphenyl)-1-(trifluoromethyl)-4H,6H-[1,2,4]triazolo[4,3-a][4,1]benzothiazepin-4-yl]acetyl}-4-piperidinyl)acetic Acid], in experiment [1], the IC50 amounted to 7.6 nM. The “Liver-cholesterol synthesis inhibitory effect” value in experiment [2] was determined as 80%.
On to `COc1cccc([C@H]2O[C@H](CCn3nnc(CC(=O)O)n3)c3cccn3-c3c(F)cc(Cl)cc32)c1OC` [Example 21, 2-(2-{2-[(4R,6S)-8-Chloro-6-(2,3-dimethoxyphenyl)-10-fluoro-4H,6H-pyrrolo[1,2-a][4,1]benzoxazepin-4-yl]ethyl}-2H-1,2,3,4-tetrazol-5-yl)acetic Acid], for which the “Liver-cholesterol synthesis inhibitory effect” value in experiment [2] stood at 68%.
As for `O=C(O)CC1CCN(C(=O)CC2OC(c3cccc4ccccc34)c3cc(Cl)ccc3-n3cccc32)CC1` (stereo not drawn) [Example 210, 2-(1-{2-[8-Chloro-6-(1-naphthyl)-4H,6H-pyrrolo[1,2-a][4,1]benzoxazepin-4-yl]acetyl}-4-piperidinyl)acetic Acid], the IC50 in experiment [1] was determined as 0.56 nM.
`COc1cccc([C@H]2O[C@H](CCn3cc(C(=O)O)cn3)c3nccn3-c3ccc(Cl)cc32)c1OC` [Example 263, 1-{2-[(4R,6S)-8-Chloro-6-(2,3-dimethoxyphenyl)-4H,6H-imidazo[1,2-a][4,1]benzoxazepin-4-yl]ethyl}-1H-pyrazole-4-carboxylic Acid]: in experiment [1], the IC50 was determined as 3.9 nM. In addition, the “Liver-cholesterol synthesis inhibitory effect” value in experiment [2] amounted to 84%.
Consider `COc1cccc(C2SC(CC(=O)O)c3nnc(C(F)(F)F)n3-c3ccc(Cl)cc32)c1OC` (stereo not drawn) [Example 341, 2-[8-Chloro-6-(2,3-dimethoxyphenyl)-1-(trifluoromethyl)-4H,6H-[1,2,4]triazolo[4,3-a][4,1]benzothiazepin-4-yl]acetic Acid], for which the IC50 in experiment [1] came to 4.6 nM. For the same compound, the “Liver-cholesterol synthesis inhibitory effect” value in experiment [2] is recorded as 90%.
